Here are results for three compounds from US6790652B1, “Method and apparatus for high density format screening for bioactive molecules” (BioImage A/S, priority 1998, dated 2004).

Read-outs that look alike come from different tables or passages of the source.

Assay [1] relates to A10 smooth muscle cells. Conditions: for response of detector cells (JC-1 fluorescence): five-concentration grid. The procedure: Cells were grown to confluence on tissue culture treated polystyrene in DMEM 10% FCS, 100 μg/ml streptomycin and 100 IU/ml penicillin. […] FCCP. FCCP (Sigma) was printed onto a supported porous aluminium oxide filter (Anopore, Whatman International Ltd, Maidstone, Kent, UK) in a 5×5 spot grid, at a single concentration of 50 μM in DMSO, or as five rows of five spots (50, 5, […], 0.05 and 0.005 μM in DMSO) and allowed to dry. The volume of liquid in each spot was approximately 1 nanoliter. The A10 cells were loaded for 25 min in KRW supplemented with 10% FCS and 5 μM JC-1 (Molecular Probes Inc.) at 37° C. After three washes in KRW, the cells were placed on the stage of a Nikon Diaphot epifluorescence microscope and imaged using a 2× plan apochromatic objective and a CCD camera (Princeton Instruments, NY USA). The cells were excited by 450-490 nm light and light emitted from the cells was filtered by a dichroic mirror (505 nm) and an emission filter (510-560 nm). Exposure/ntegration times of 0.5 s were used and images acquired at 4 s intervals. At the time indicated as 0 in FIGS. 8 and 9 a filter with spots of FCCP in the patterns mentioned above was lowered down into the buffer overlying the cells and rapidly adjusted to a distance of about 300 μm above the cell layer and thereafter fixed in that position.

The test system of assay [2] is A10 smooth muscle cells. The conditions noted are these: read-out: EC50 for a mitochondrial depolarisation in these cells, known value; cited from earlier work.
The subject of another assay is BHKhM1 cells. The assay can be described thus: Fluo-3 calcium response of BHKhM1 cells on porous membrane lowered onto compound spots on glass. Conditions: approx. 10 nanoliters. The assay is classed as cell-based. The procedure:
Ionomycin was printed onto a glass surface at two concentrations (10 mM and 1 mM), and thapsigargin was printed onto the surface at 1 mM. All spots were allowed to dry. The volume of liquid spotted was approx. 10 nanoliters per spot. At the time indicated as 0 s the still-wet membrane with the cells was lowered down onto the glass surface so that the membrane and the glass came in direct contact, thereby dissolving the compounds deposited in the spots.

With `N#CC(C#N)=NNc1ccc(OC(F)(F)F)cc1` [FCCP, carbonyl cyanide p-trifluoromethoxyphenylhydrazone], the “response of detector cells (JC-1 fluorescence)” value with A10 smooth muscle cells [1] (spot concentration 0.005 μM in DMSO) is “do not show detectable responses”; in the assay with A10 smooth muscle cells [1] (spot concentration 0.05 μM in DMSO) it was “do not show detectable responses”; in the assay on A10 smooth muscle cells [1] (spot concentration 0.5 μM in DMSO), “clearly give positive responses”; with A10 smooth muscle cells [1] (spot concentration 5 μM in DMSO), “clearly give positive responses”; with A10 smooth muscle cells [1] (spot concentration 50 μM in DMSO), “quickest response”. For the same compound, the “fluorescence intensity time profile (mitochondrial membrane depolarisation)” value in the assay with A10 smooth muscle cells [1] (spots of 50 μM in DMSO, 5×5 grid, single concentration) is “steep rise in fluorescence intensity”. Also, in the assay with A10 smooth muscle cells [1] (spots of 50 μM in DMSO, approx. 1 nanoliter, five central spots), the “lag phase before rise in fluorescence intensity” value was 10 to 15 s. In the assay on A10 smooth muscle cells [2], the EC50 was around 8 nM.
As to `C[C@H](CCC(=O)O)C[C@H](C)C[C@H](C)C(=O)/C=C(\O)[C@H](C)C[C@H](C)C/C=C/[C@@H](C)[C@@H](O)[C@@H](C)[C@@H](O)C[C@@H]1CC[C@@](C)([C@H]2CC[C@@](C)([C@@H](C)O)O2)O1` [Ionomycin, ionomycin], the “Fluo-3 fluorescence response (time profile)” value in the assay with BHKhM1 cells (spots printed at 1 mM) is reported as “sustained responses”. Also, in the assay with BHKhM1 cells (spots printed at 10 mM), the “Fluo-3 fluorescence response (onset, spatial size, intensity)” value was “earliest, spatially largest, and most intense response”; the “Fluo-3 fluorescence response (time profile)” value is recorded as “sustained responses”.
Consider `C/C=C(/C)C(=O)O[C@H]1C(C)=C2[C@H]([C@@H]1OC(=O)CCCCCCC)[C@@](C)(OC(C)=O)C[C@H](OC(=O)CCC)[C@@]1(O)[C@H]2OC(=O)[C@@]1(C)O` [thapsigargin], for which the “Fluo-3 fluorescence response (time profile)” value in the assay with BHKhM1 cells (spots printed at 1 mM) was “transient and lower in intensity than that of either concentration of ionomycin”.

As usually defined, the EC50 is the concentration that produces a half-maximal response.
